Earlier results as cited in PubChem BioAssay AID1259409 (Chemical Carcinogenesis Research Information System (CCRIS), 2018).

Test system: rodent chemically induced tumor inhibition, incidence and multiplicity
Assay: CCRIS tumor inhibitor studies
Settings: Route [Inhibitor]: ORAL, Species: RAT, Promoter: NONE USED

## CC1=C(/C=C/C(C)=C/C=C/C(C)=C/C=C2C(=O)CC(C)(C)CC2=O)C(C)(C)CCC1
Carcinogen: L-AZASERINE, 115-02-6, Dose [Inhibitor]: 1 MMOL/KG DIET DAILY FOR 365 D STARTING 1 WK AFTER COMPLETION OF CARCINOGEN TREATMENT (STUDY DURATION: 66 WK), Strain/Sex: WISTAR-LEWIS/FEMALE, Target Tissue: Type of Lesion: PANCREAS: ADENOMA, Dose [Carcinogen]: 10 MG/KG BW 1/WK FOR 15 WK
  tumour outcome (control, treated, inhibition, significance): 50%, 33%, 34%, not significant
Carcinogen: L-AZASERINE, 115-02-6, Dose [Inhibitor]: 1 MMOL/KG DIET DAILY FOR 365 D STARTING 1 WK AFTER COMPLETION OF CARCINOGEN TREATMENT (STUDY DURATION: 66 WK), Strain/Sex: WISTAR-LEWIS/FEMALE, Target Tissue: Type of Lesion: PANCREAS: CARCINOMA IN SITU, Dose [Carcinogen]: 10 MG/KG BW 1/WK FOR 15 WK
  tumour outcome (control, treated, inhibition, significance): 8%, 21%, -163%, not calculated
Carcinogen: L-AZASERINE, 115-02-6, Dose [Inhibitor]: 1 MMOL/KG DIET DAILY FOR 365 D STARTING 1 WK AFTER COMPLETION OF CARCINOGEN TREATMENT (STUDY DURATION: 66 WK), Strain/Sex: WISTAR-LEWIS/FEMALE, Target Tissue: Type of Lesion: PANCREAS: CARCINOMA, Dose [Carcinogen]: 10 MG/KG BW 1/WK FOR 15 WK
  tumour outcome (control, treated, inhibition, significance): 13%, 4%, 69%, not significant
Carcinogen: L-AZASERINE, 115-02-6, Dose [Inhibitor]: 1 MMOL/KG DIET DAILY FOR 365 D STARTING 1 WK AFTER COMPLETION OF CARCINOGEN TREATMENT (STUDY DURATION: 66 WK), Strain/Sex: WISTAR-LEWIS/FEMALE, Target Tissue: Type of Lesion: PANCREAS: NEOPLASM, Dose [Carcinogen]: 10 MG/KG BW 1/WK FOR 15 WK
  tumour outcome (control, treated, inhibition, significance): 71%, 58%, 18%, not significant
Carcinogen: L-AZASERINE, 115-02-6, Dose [Inhibitor]: 1 MMOL/KG DIET DAILY FOR 365 D STARTING 1 WK AFTER COMPLETION OF CARCINOGEN TREATMENT (STUDY DURATION: 66 WK), Strain/Sex: WISTAR-LEWIS/MALE, Target Tissue: Type of Lesion: PANCREAS: ADENOMA, Dose [Carcinogen]: 10 MG/KG BW 1/WK FOR 15 WK
  tumour outcome (control, treated, inhibition, significance): 25%, 12%, 52%, not significant
Carcinogen: L-AZASERINE, 115-02-6, Dose [Inhibitor]: 1 MMOL/KG DIET DAILY FOR 365 D STARTING 1 WK AFTER COMPLETION OF CARCINOGEN TREATMENT (STUDY DURATION: 66 WK), Strain/Sex: WISTAR-LEWIS/MALE, Target Tissue: Type of Lesion: PANCREAS: CARCINOMA IN SITU, Dose [Carcinogen]: 10 MG/KG BW 1/WK FOR 15 WK
  tumour outcome (control, treated, inhibition, significance): 29%, 56%, -93%, not significant
Carcinogen: L-AZASERINE, 115-02-6, Dose [Inhibitor]: 1 MMOL/KG DIET DAILY FOR 365 D STARTING 1 WK AFTER COMPLETION OF CARCINOGEN TREATMENT (STUDY DURATION: 66 WK), Strain/Sex: WISTAR-LEWIS/MALE, Target Tissue: Type of Lesion: PANCREAS: CARCINOMA, Dose [Carcinogen]: 10 MG/KG BW 1/WK FOR 15 WK
  tumour outcome (control, treated, inhibition, significance): 46%, 16%, 65%, p<0.05
Carcinogen: L-AZASERINE, 115-02-6, Dose [Inhibitor]: 1 MMOL/KG DIET DAILY FOR 365 D STARTING 1 WK AFTER COMPLETION OF CARCINOGEN TREATMENT (STUDY DURATION: 66 WK), Strain/Sex: WISTAR-LEWIS/MALE, Target Tissue: Type of Lesion: PANCREAS: NEOPLASM, Dose [Carcinogen]: 10 MG/KG BW 1/WK FOR 15 WK
  tumour outcome (control, treated, inhibition, significance): 100%, 84%, 16%, not significant
Carcinogen: L-AZASERINE, 115-02-6, Dose [Inhibitor]: 2 MMOL/KG DIET DAILY FOR 330 D STARTING 1 WK AFTER COMPLETION OF CARCINOGEN TREATMENT (STUDY DURATION: 66 WK), Strain/Sex: WISTAR-LEWIS/FEMALE, Target Tissue: Type of Lesion: PANCREAS: ADENOMA, Dose [Carcinogen]: 10 MG/KG BW 1/WK FOR 15 WK
  tumour outcome (control, treated, inhibition, significance): 50%, 33%, 34%, not significant
Carcinogen: L-AZASERINE, 115-02-6, Dose [Inhibitor]: 2 MMOL/KG DIET DAILY FOR 330 D STARTING 1 WK AFTER COMPLETION OF CARCINOGEN TREATMENT (STUDY DURATION: 66 WK), Strain/Sex: WISTAR-LEWIS/FEMALE, Target Tissue: Type of Lesion: PANCREAS: CARCINOMA IN SITU, Dose [Carcinogen]: 10 MG/KG BW 1/WK FOR 15 WK
  tumour outcome (control, treated, inhibition, significance): 8%, 17%, -113%, not calculated
Carcinogen: L-AZASERINE, 115-02-6, Dose [Inhibitor]: 2 MMOL/KG DIET DAILY FOR 330 D STARTING 1 WK AFTER COMPLETION OF CARCINOGEN TREATMENT (STUDY DURATION: 66 WK), Strain/Sex: WISTAR-LEWIS/FEMALE, Target Tissue: Type of Lesion: PANCREAS: CARCINOMA, Dose [Carcinogen]: 10 MG/KG BW 1/WK FOR 15 WK
  tumour outcome (control, treated, inhibition, significance): 13%, 0%, 100%, not significant
Carcinogen: L-AZASERINE, 115-02-6, Dose [Inhibitor]: 2 MMOL/KG DIET DAILY FOR 330 D STARTING 1 WK AFTER COMPLETION OF CARCINOGEN TREATMENT (STUDY DURATION: 66 WK), Strain/Sex: WISTAR-LEWIS/FEMALE, Target Tissue: Type of Lesion: PANCREAS: NEOPLASM, Dose [Carcinogen]: 10 MG/KG BW 1/WK FOR 15 WK
  tumour outcome (control, treated, inhibition, significance): 71%, 50%, 30%, p 0.14
Carcinogen: L-AZASERINE, 115-02-6, Dose [Inhibitor]: 2 MMOL/KG DIET DAILY FOR 330 D STARTING 1 WK AFTER COMPLETION OF CARCINOGEN TREATMENT (STUDY DURATION: 66 WK), Strain/Sex: WISTAR-LEWIS/MALE, Target Tissue: Type of Lesion: PANCREAS: ADENOMA, Dose [Carcinogen]: 10 MG/KG BW 1/WK FOR 15 WK
  tumour outcome (control, treated, inhibition, significance): 25%, 40%, -60%, not significant
Carcinogen: L-AZASERINE, 115-02-6, Dose [Inhibitor]: 2 MMOL/KG DIET DAILY FOR 330 D STARTING 1 WK AFTER COMPLETION OF CARCINOGEN TREATMENT (STUDY DURATION: 66 WK), Strain/Sex: WISTAR-LEWIS/MALE, Target Tissue: Type of Lesion: PANCREAS: CARCINOMA IN SITU, Dose [Carcinogen]: 10 MG/KG BW 1/WK FOR 15 WK
  tumour outcome (control, treated, inhibition, significance): 29%, 44%, -52%, not significant
Carcinogen: L-AZASERINE, 115-02-6, Dose [Inhibitor]: 2 MMOL/KG DIET DAILY FOR 330 D STARTING 1 WK AFTER COMPLETION OF CARCINOGEN TREATMENT (STUDY DURATION: 66 WK), Strain/Sex: WISTAR-LEWIS/MALE, Target Tissue: Type of Lesion: PANCREAS: CARCINOMA, Dose [Carcinogen]: 10 MG/KG BW 1/WK FOR 15 WK
  tumour outcome (control, treated, inhibition, significance): 46%, 0%, 100%, p<0.05
Carcinogen: L-AZASERINE, 115-02-6, Dose [Inhibitor]: 2 MMOL/KG DIET DAILY FOR 330 D STARTING 1 WK AFTER COMPLETION OF CARCINOGEN TREATMENT (STUDY DURATION: 66 WK), Strain/Sex: WISTAR-LEWIS/MALE, Target Tissue: Type of Lesion: PANCREAS: NEOPLASM, Dose [Carcinogen]: 10 MG/KG BW 1/WK FOR 15 WK
  tumour outcome (control, treated, inhibition, significance): 100%, 84%, 16%, not significant
Carcinogen: N-METHYL-N-NITROSOUREA, 684-93-5, Dose [Inhibitor]: 406 MG/KG DIET DAILY FOR 24 WK STARTING 5 D AFTER LAST CARCINOGEN DOSE (STUDY DURATION: 32 WK), Strain/Sex: F344/MALE, Target Tissue: Type of Lesion: COLON: SARCOMA, Dose [Carcinogen]: 0.5 MG 2/WK FOR 8 WK
  tumour outcome (control, treated, inhibition, significance): 5/40 (13%), 3/40 (8%), 38%, not calculated
Carcinogen: N-METHYL-N-NITROSOUREA, 684-93-5, Dose [Inhibitor]: 406 MG/KG DIET DAILY FOR 24 WK STARTING 5 D AFTER LAST CARCINOGEN DOSE (STUDY DURATION: 32 WK), Strain/Sex: F344/MALE, Target Tissue: Type of Lesion: COLON: TUMOR, Dose [Carcinogen]: 0.5 MG 2/WK FOR 8 WK
  tumour outcome (control, treated, inhibition, significance): 60%, 75%, -25%, not significant
Carcinogen: N-METHYL-N-NITROSOUREA, 684-93-5, Dose [Inhibitor]: 406 MG/KG DIET DAILY FOR 38 WK STARTING 5 D AFTER LAST CARCINOGEN DOSE (STUDY DURATION: 44 WK), Strain/Sex: F344/MALE, Target Tissue: Type of Lesion: COLON: TUMOR, Dose [Carcinogen]: 0.5 MG 2/WK FOR 6 WK
  tumour outcome (control, treated, inhibition, significance): 62%, 49%, 21%, not significant
Carcinogen: N-METHYL-N-NITROSOUREA, 684-93-5, Dose [Inhibitor]: 406 MG/KG DIET DAILY FOR 48 WK STARTING 5 D AFTER LAST CARCINOGEN DOSE (STUDY DURATION: 52 WK), Strain/Sex: F344/MALE, Target Tissue: Type of Lesion: COLON: TUMOR, Dose [Carcinogen]: 0.5 MG 2/WK FOR 4 WK
  tumour outcome (control, treated, inhibition, significance): 31%, 35%, -13%, not significant
